Measured values as given in US20230303565A1, “PESTICIDALLY ACTIVE HETEROCYCLIC DERIVATIVES WITH SULFUR CONTAINING SUBSTITUENTS” (SYNGENTA CROP PROTECTION AG, priority 2020, published 2023).

How the values were obtained:
Format in all cases: in vivo
[1] = test system: Chilo suppressalis (Striped Rice Stemborer); assay: Activity against Chilo suppressalis (striped rice stemborer), artificial diet in 24-well plates; settings: 144 h, application rate of 200 ppm, L2 larvae, 6 days after infestation, in comparison to untreated samples, read-out: control (at least one of mortality, anti-feedant effect, growth inhibition)
Method: Example B1: Activity Against Chilo suppressalis (Striped Rice Stemborer)
24-well microtiter plates with artificial diet were treated with aqueous test solutions prepared from 10′000 ppm DMSO stock solutions by pipetting. After drying, the plates were infested with L2 larvae (6-8 per well). The samples were assessed for mortality, anti-feeding effect, and growth inhibition in comparison to untreated samples 6 days after infestation. Control of Chilo suppressalis by a test sample is given when at least one of the categories mortality, anti-feedant effect, and growth inhibition is higher than the untreated sample.

[2] = test system: Diabrotica Balteata (Corn Root Worm); assay: Activity against Diabrotica balteata (corn root worm), maize sprouts on agar; settings: 96 h, application rate of 200 ppm, L2 larvae, 4 days after infestation, in comparison to untreated samples, read-out: effect in at least one of the two categories (mortality or growth inhibition)
Method: Example B2: Activity Against Diabrotica Balteata (Corn Root Worm)
Maize sprouts placed onto an agar layer in 24-well microtiter plates were treated with aqueous test solutions prepared from 10′000 ppm DMSO stock solutions by spraying. After drying, the plates were infested with L2 larvae (6 to 10 per well). The samples were assessed for mortality and growth inhibition in comparison to untreated samples 4 days after infestation.

[3] = test system: Plutella xylostella (Diamond Back Moth); assay: Activity against Plutella xylostella (diamond back moth), artificial diet in 24-well plates; settings: 192 h, application rate of 200 ppm, Plutella eggs, 8 days after infestation, in comparison to untreated samples, read-out: effect in at least one of the two categories (mortality or growth inhibition)
Method: Example B6: Activity Against Plutella xylostella (Diamond Back Moth)
24-well microtiter plates with artificial diet were treated with aqueous test solutions prepared from 10′000 ppm DMSO stock solutions by pipetting. After drying, Plutella eggs were pipetted through a plastic stencil onto a gel blotting paper and the plate was closed with it. The samples were assessed for mortality and growth inhibition in comparison to untreated samples 8 days after infestation.

[4] = test system: Spodoptera littoralis (Egyptian Cotton Leaf Worm); assay: Activity against Spodoptera littoralis (Egyptian cotton leaf worm), cotton leaf discs; settings: foliar, 72 h, application rate of 200 ppm, L1 larvae, 3 days after infestation, in comparison to untreated samples, read-out: control (at least one of mortality, anti-feedant effect, growth inhibition)
Method: Example B7: Activity Against Spodoptera littoralis (Egyptian Cotton Leaf Worm)
Cotton leaf discs were placed onto agar in 24-well microtiter plates and sprayed with aqueous test solutions prepared from 10′000 ppm DMSO stock solutions. After drying the leaf discs were infested with five L1 larvae. The samples were assessed for mortality, anti-feeding effect, and growth inhibition in comparison to untreated samples 3 days after infestation. Control of Spodoptera littoralis by a test sample is given when at least one of the categories mortality, anti-feedant effect, and growth inhibition is higher than the untreated sample.

[5] = test system: Myzus persicae (Green Peach Aphid); assay: Activity against Myzus persicae (green peach aphid), feeding/contact activity, sunflower leaf discs; settings: foliar, 144 h, application rate of 200 ppm, aphid population of mixed ages, 6 days after infestation
Method: Example B5: Activity Against Myzus persicae (Green Peach Aphid) Feeding/Contact Activity
Sunflower leaf discs were placed onto agar in a 24-well microtiter plate and sprayed with aqueous test solutions prepared from 10′000 ppm DMSO stock solutions. After drying, the leaf discs were infested with an aphid population of mixed ages. The samples were assessed for mortality 6 days after infestation.

[6] = test system: Carpocapsa (Cydia) Pomonella (Codling Moth); assay: Activity against Carpocapsa (Cydia) pomonella (codling moth), larvicide, feeding/contact, diet cubes; settings: 336 h, application rate of 12.5 ppm, L1 larvae, 14 days after infestation, 26-27° C.
Method: Example B9: Activity Against Carpocapsa (Cydia) Pomonella (Codling Moth)) Larvicide, Feeding/Contact
Diet cubes coated with paraffin were sprayed with diluted test solutions in an application chamber. After drying off the treated cubes (10 replicates) were infested with 1 L1 larvae. Samples were incubated at 26-27° C. and checked 14 days after infestation for mortality and growth inhibition.

[7] = test system: Bemisia tabaci (Cotton White Fly); assay: Activity against Bemisia tabaci (cotton white fly), cotton leaf discs; settings: foliar, 144 h, application rate of 200 ppm, adult white flies, 6 days after incubation
Method: Example B8: Activity Against Bemisia tabaci (Cotton White Fly)
Cotton leaf discs were placed on agar in 24-well microtiter plates and sprayed with aqueous test solutions prepared from 10′000 ppm DMSO stock solutions. After drying the leaf discs were infested with adult white flies. The samples were checked for mortality 6 days after incubation.

CCS(=O)(=O)c1c(N2Cc3ccc(C4(C#N)CC4)cc3C2=O)nc2ccc(C3CC3)cn12 [P5, 1-[2-(6-cyclopropyl-3-ethylsulfonyl-imidazo[1,2-a]pyridin-2-yl)-3-oxo-isoindolin-5-yl]cyclopropanecarbonitrile]
≥ 80%: percent control (mortality, anti-feedant effect or growth inhibition) at 200 ppm [1] | percent effect (mortality or growth inhibition) at 200 ppm [2] | percent effect (mortality or growth inhibition) at 200 ppm [3] | percent control (mortality, anti-feedant effect or growth inhibition) at 200 ppm [4]

CCS(=O)(=O)c1c(N2Cc3ncc(C4CC4)cc3C2=O)nc2ccc(C(F)(F)F)cn12 [P11, 3-cyclopropyl-6-[3-ethylsulfonyl-6-(trifluoromethyl)imidazo[1,2-a]pyridin-2-yl]-7H-pyrrolo[3,4-b]pyridin-5-one]
≥ 80%: percent control (mortality, anti-feedant effect or growth inhibition) at 200 ppm [1] | percent effect (mortality or growth inhibition) at 200 ppm [3] | percent control (mortality, anti-feedant effect or growth inhibition) at 200 ppm [4]

CCS(=O)(=O)c1c(N2Cc3ccc(S(=O)(=O)C4CC4)cc3C2=O)nc2ccc(C(F)(F)F)cn12 [P8, 6-cyclopropylsulfonyl-2-[3-ethylsulfonyl-6-(trifluoromethyl)imidazo[1,2-a]pyridin-2-yl]isoindolin-1-one]
≥ 80%: percent control (mortality, anti-feedant effect or growth inhibition) at 200 ppm [1] | percent effect (mortality or growth inhibition) at 200 ppm [2] | mortality at 200 ppm [5] | percent effect (mortality or growth inhibition) at 200 ppm [3] | percent control (mortality, anti-feedant effect or growth inhibition) at 200 ppm [4] | mortality at 12.5 ppm [6]

CCS(=O)(=O)c1c(N2Cc3ccc(C4(C#N)CC4)cc3C2=O)nc2ccc(C(C)(C)C#N)cn12 [P7, 1-[2-[6-(1-cyano-1-methyl-ethyl)-3-ethylsulfonyl-imidazo[1,2-a]pyridin-2-yl]-3-oxo-isoindolin-5-yl]cyclopropanecarbonitrile]
≥ 80%: percent control (mortality, anti-feedant effect or growth inhibition) at 200 ppm [1] | percent effect (mortality or growth inhibition) at 200 ppm [2] | percent effect (mortality or growth inhibition) at 200 ppm [3] | percent control (mortality, anti-feedant effect or growth inhibition) at 200 ppm [4]

CCS(=O)(=O)c1c(N2Cc3ccc(C4CC4)cc3C2=O)nc2ccc(C(F)(F)F)cn12 [P12, 6-cyclopropyl-2-[3-ethylsulfonyl-6-(trifluoromethyl)imidazo[1,2-a]pyridin-2-yl]isoindolin-1-one]
≥ 80%: percent control (mortality, anti-feedant effect or growth inhibition) at 200 ppm [1] | percent effect (mortality or growth inhibition) at 200 ppm [2] | percent effect (mortality or growth inhibition) at 200 ppm [3] | percent control (mortality, anti-feedant effect or growth inhibition) at 200 ppm [4]

CCS(=O)(=O)c1c(N2Cc3ccc(C4(C#N)CC4)cc3C2=O)nn2ccc(C(F)(F)F)cc12 [P3, 1-[2-[3-ethylsulfonyl-5-(trifluoromethyl)pyrazolo[1,5-a]pyridin-2-yl]-3-oxo-isoindolin-5-yl]cyclopropanecarbonitrile]
≥ 80%: percent control (mortality, anti-feedant effect or growth inhibition) at 200 ppm [1] | percent effect (mortality or growth inhibition) at 200 ppm [2] | percent effect (mortality or growth inhibition) at 200 ppm [3] | percent control (mortality, anti-feedant effect or growth inhibition) at 200 ppm [4] | mortality at 200 ppm [7]

CCS(=O)(=O)c1c(N2Cc3cnc(C4CC4)cc3C2=O)nc2ccc(C(F)(F)F)cn12 [P10, 6-cyclopropyl-2-[3-ethylsulfonyl-6-(trifluoromethyl)imidazo[1,2-a]pyridin-2-yl]-3H-pyrrolo[3,4-c]pyridin-1-one]
≥ 80%: percent control (mortality, anti-feedant effect or growth inhibition) at 200 ppm [1] | percent effect (mortality or growth inhibition) at 200 ppm [2] | percent effect (mortality or growth inhibition) at 200 ppm [3] | percent control (mortality, anti-feedant effect or growth inhibition) at 200 ppm [4]
